Source: patent US8642656B2, “Calixarene-based peptide conformation mimetics, methods of use, and methods of making” (priority 2004, dated 2014)

Experiments:
[1] = system: HUVEC; test: EC migration, wound healing assay; format: cell-based, human; conditions: 25 μM
Method: EC migration was measured in the wound healing assay. HUVEC were cultured in triplicate on a 1-mg/ml fibronectin coat in a 24-well tissue culture plate. Cells were grown for 3 days until confluence. When confluent, a wound was made in the well, using a blunt glass pipette. The medium was replaced with medium containing 10 ng/ml bFGF with or without 25 μM compound and at 0, 2, 4, 6, and 8 hours, the wound width was measured at four different predefined places. Photographs were made using an inverted microscope and a Contax 167 MT 35 mm camera.

[2] = system: B16F10 tumor cells; test: Proliferation of B16F10 tumor cells; format: cell-based, murine
[3] = system: B16 melanoma; test: B16 melanoma tumor growth model in mice; format: in vivo; conditions: tumor-bearing mice
Method: Female athymic nude mice (nu/nu, 5-6 weeks old) were used. These mice were purchased from the National Cancer Institute and allowed to acclimatize to local conditions for at least one week. Animals were given water and standard chow ad libitum, and were kept on a 12-hour light/dark cycle. All experiments were approved by the University of Minnesota Research Animal Resources ethical committee. Mice were randomized and split into three groups: 1) human serum albumin (10 mg/kg/day), 2) βpep-25 (10 mg/kg/day) and 3) peptide mimetic agent (5 mg or 10 mg/kg/day). Test compounds were diluted in DMSO and administered using osmotic mini-pumps (Durect, Cupertino, Calif.). Exponentially growing MA148 human ovarian carcinoma cells, kindly provided by Prof. Ramakrishnan (R. P. Dings et al., Cancer Res., 63, 382-385 (2003)) or B16 mouse melanoma cells were cultured in RPM1 1640 medium (Life Technologies, Grand Island, N.Y.). […]
Tumor volume was determined by measuring the diameters of tumors using calipers (Scienceware, Pequannock, N.J.) using the equation for the volume of a spheroid: (a^2×b×[…])/6, where ‘a’ is the width and ‘b’ the length or the tumor. […] Tumor weights correlated well with tumor volumes calculated in this way. Statistical differences in tumor growth curves were analyzed using the two-way ANOVA test.

[4] = Hematocrit levels, first (MA148) study; format: in vivo, mice; conditions: last day of treatment, vehicle 47±5.7
Method: As an indirect measurement of general toxicity, body weights of mice were monitored twice weekly, using a digital balance (Ohaus Florham, N.J.). To determine hematocrit levels, blood samples were extracted by tail vein bleedings one day after terminating treatment, and blood was collected in heparinized micro-hematocrit capillary lubes (Fisher Pittsburgh, Pa.). Samples were spun down for 10 minutes in a micro-hematocrit centrifuge (Clay-Adams; NY), and the amount of hematocrit was determined using an international microcapillary reader (IEC; Needham, Mass.).

Compound	effect on EC migration, wound assay (in words) [1]	IC50 ([2]; read-out: IC50 against B16F10 tumor cells) [µM]	B16 tumor growth (in words) [3]	Hematocrit levels ±SD ([4]; 2.7 mg/kg)	Hematocrit levels ±SD ([4]; 10 mg/kg)	IC50 against B16F10 tumor cells [2]	Hematocrit levels ±SD ([4]; 2.4 mg/kg)
5,11,17,23-Tetra-tert-butyl-25,27-bis(2-guanidinoethoxy)-26,28-dihydroxy calix[4]arene trifluoroacetic acid salt [Compound 27]	as effective as βpep-25 and more effective than 40	10	significantly inhibited	46.5±0.7 percentage of red blood cells	47±4.2 percentage of red blood cells	–	–
CN(C)CCNC(=O)COc1c2cccc1Cc1cccc(c1OCC(=O)NCCN(C)C)Cc1cccc(c1OCC(=O)NCCN(C)C)Cc1cccc(c1OCC(=O)NCCN(C)C)C2 [Compound 40]	–	–	significantly inhibited	–	49.5±2.1 percentage of red blood cells	neither demonstrated activity	50±1.4 percentage of red blood cells
